From patent publication US7990502B2, “Liquid-crystal display device” (Fujifilm Corporation, priority 2007, dated 2011)

Assay: log P value (octanol-water partition coefficient) of the compound capable of mending the humidity dependence
Assay type: physicochemical
Conditions: octanol-water partition coefficient of the humidity-dependence mending compound used in the second retardation film
From the text: Log P of the compound capable of mending the humidity dependence for use in the invention is preferably from 3 to 10, more preferably from 3 to 7. Using the compound capable of mending the humidity dependence having log P that falls within the above range may reduce the humidity dependence of Re not causing a face condition trouble such as bleeding out, etc.
The log P value means an octanol-water partition coefficient, and it may be determined according to the flask shaking method described in JIS (Japanese Industrial Standards) Z7260-107 (2000). In place of determining it through actual measurement, the octanol-water partition coefficient (log P value) may be estimated according to a computational chemical method or an experimental method. As the computational method, preferably employed are a Crippen's fragmentation method (J. Chem. Inf. Comput. Sci., 27, 21 (1987)), a Viswanadhan's fragmentation method (J. Chem. Inf. Comput. Sci., 29, 163 (1989)), a Broto's fragmentation method (Eur. J. Med. Chem.-Chim. Theor., 19, 71 (1984)). Particularly, the Crippen's fragmentation method (J. Chem. Inf. Comput. Sci., 27, 21 (1987)) is preferably employed. In case where the log P value of a certain compound differs depending on the measurement method or the computational method employed, the compound is preferably judged according to a Crippen's fragmentation method as to whether or not it could fall within the preferred range.

logP | Structure (SMILES)
3.7 | O=C(Oc1ccccc1)[C@H]1CC[C@H](C(=O)Oc2ccccc2)CC1 [Compound A-1]
5.7 | Cc1ccc(OC(=O)[C@H]2CC[C@H](C(=O)Oc3ccc(C)cc3C)CC2)c(C)c1 [Compound A-6]
11 | CCCCCCCc1ccc(OC(=O)[C@H]2CC[C@H](C(=O)Oc3ccc(CCCCCCC)cc3)CC2)cc1 [D]
5.8 | CCc1ccc(OC(=O)[C@H]2CC[C@H](C(=O)Oc3ccc(CC)cc3)CC2)cc1 [Compound A-3]
